Read-outs that look alike come from different tables or passages of the source. Marks after values point to notes of the source that are not given here. Some results are limits rather than exact numbers.

Broadly, the EC50 is the midpoint of the concentration-response curve. Broadly, the CC50 is the concentration giving 50% cytotoxicity.

The test system of series [1] is T. cruzi trypomastigotes (Y strain). The series is described as follows: Cytotoxicity for trypomastigotes (viable parasite count, Neubauer chamber). Type of series: cell-based, Trypanosoma cruzi. The note with it: for activity at the screening threshold (in words): threshold 10 μΜ. From the text:
The trypanocidal activity of the 69 indirubins was initially evaluated against trypomastigotes (Y strain T. cruzi) through the determination of EC50 values. First, the collection of 69 indirubins (Table S1) was screened against the trypomastigote form of T. cruzi parasites at 10 μΜ and 1 μΜ.
The T. cruzi Y strain (DTU II) was used in this study. […] For in vivo analysis, bloodstream trypomastigotes used were obtained from BALB/c mice previously infected intraperitoneally with 10,000 Y trypomastigotes, and then bled after 8–12 days when they reached the peak of parasitaemia.
Trypomastigotes (4x10^5 cells/well) were seeded into 96-well plates and the indirubins were added at eight concentrations ranging from 0.08 to 10 µM, in triplicate. Plates were incubated for 24 h at 37 °C and 5% of CO2. Aliquots of each well were collected and the number of viable parasites, based on parasite integrity and motility, was assessed in a Neubauer chamber and compared to untreated cultures. Three independent experiments were performed.
(§1) The selectivity index (SI) was defined as the ratio of CC50 by EC50 (trypomastigotes). The one-way ANOVA followed by Bonferroni’s multiple comparison test was used to determine the statistical significance of the group comparisons in the in vitro infection and in vivo studies. Results were considered statistically significant when P < 0.05. All analyzes were performed using Graph Pad Prism version 5.01

The subject of series [2] is Y Trypanosoma cruzi strain. The series is described as follows: Infection in mice (acute Chagas disease model). As to conditions: for % Blood parasitemia reduction in mice at 12 dpi: daily for 5 days from day 5 of infection, versus vehicle group; for Mortality: dead/total, monitored for 30 days after treatment. Type of series: in vivo, BALB/c mice. As to the method:
Female BALB/c mice (18–22 g) were infected with bloodstream trypomastigotes by intraperitoneal inoculation of 10^4 parasites in 100 µL of saline solution and then mice were randomly divided in groups (six animals per group). Before starting the treatment on the fifth day post infection, the infection was confirmed in all animals where on average 0.4 × 10^6 parasites per ml of blood were found. Thus, after day 5 of infection, treatment with 20 mg/kg weight of indirubins 10, 11, 17 and 32 were given orally for five consecutive days. For the control group, benznidazole was given orally at dose of 100 mg/kg weight. Saline containing 20% DMSO was used as a vehicle and administrated on untreated and infected group. Infection was monitored daily by counting the number of motile parasites in 5 µL of fresh blood sample drawn from the lateral tail veins, as recommended by standard protocol. Survival of mice was monitored for 30 days after treatment.

Series [3] is described as follows: Cytotoxicity to mammalian cells (Alamar Blue). The format is cell-based, mouse. As to conditions: mouse, J774.1 macrophage cells; J774.1 cell viability, 72 h post-treatment. As to the method: (§2) Mouse macrophages (J774.1 cell line) were seeded into 96-well plates at a cell number 1 × 10^4 cells/well in DMEM medium supplemented with 10 % of FBS and incubated for 24 h at 37°C and 5% CO2. Samples were then added at eight concentrations (ranging from 0.078 to 10 µM) in triplicate, and incubated for 72 h, followed by the addition of 20 µL/well of Alamar Blue (Invitrogen; Catalog number: DAL1025). Colorimetric readings were performed 24 h later at 570 and 600 nm. CC50 values were calculated using data-points gathered from three independent experiments. Benznidazole was tested in concentrations ranging from 0.78 to 100 µM.
as §1

For series [4], the system named is T. cruzi intracellular amastigotes. Briefly: In vitro infection assay (infected peritoneal macrophages). Type of series: cell-based, Trypanosoma cruzi. The note with it: amastigotes in infected macrophages treated for 6 h, mean ± SD. Here is the method: Peritoneal exudate macrophages were obtained by washing, with cold PBS, the peritoneal cavity of BALB/c mice 4–5 days after injection of 3% thioglycolate (Sigma-Aldrich) in saline (1.5 mL per mice). Then, cells were plated at a cell density of 2 × 10^5 cells/well in 24-well plates with sterile coverslips on the bottom in RPMI supplemented with 10% FBS and incubated for 24 h at 37° C and 5% CO2. Cells were then infected with trypomastigotes at a ratio of 10 parasites per macrophage for 2 h. Free trypomastigotes were removed by successive washes using saline solution. Cultures were incubated in complete medium alone or with the compounds under investigation in different concentrations for 6 h. The medium was replaced with fresh medium and the plate was incubated for 3 days. Cells were fixed in absolute alcohol and the percentage of infected macrophages and the mean number of amastigotes/100 macrophages was determined by manual counting after hematoxylin and eosin staining in an optical microscope (Olympus). The percentage of infected macrophages and the relative number of amastigotes per macrophage was determined by counting 100 cells per slide.
as §1

Series [5] has as its system murine macrophages J774.1. The series is described as follows: Cytotoxicity to mammalian cells (Alamar Blue). The format is cell-based, mouse. Here is the method: as §2, §1
For orientation: Resazurin is reduced to fluorescent resorufin, in cell work by metabolically active cells.

Series [6] concerns T. cruzi trypomastigotes. The series is described as follows: Ultrastructural studies (TEM and SEM) of treated trypomastigotes. The format is cell-based, Trypanosoma cruzi. The note with it: 24 h; for morphological alterations by scanning electron microscopy: EC50 and 2 x EC50 concentration; for ultrastructural alterations by transmission electron microscopy: EC50 concentration. Here is the method:
Parasites were then fixed with 2% formaldehyde and 2.5% glutaraldehyde in sodium cacodylate buffer (0.1 M, pH 7.2) for 1 h at room temperature. After fixation, parasites were washed 3 times with sodium cacodylate buffer (0.1 M, pH 7.2), and post-fixed with a 1.0 % solution of osmium tetroxide containing 0.8% potassium ferrocyanide (Sigma-Aldrich; Catalog number: P3289) for 1 h. Cells were subsequently dehydrated in increasing concentrations of acetone (30, 50, 70, 90 and 100%) for 10 min at each step and embedded in polybed resin (PolyScience; Catalog number: 00552–500). Ultrathin sections on copper grids were contrasted with uranyl acetate and lead citrate and observed under a ZEISS 109 transmission electron microscope. For scanning electron microscopy, trypomastigotes treated and fixed in the same conditions were washed in 0.1 M cacodylate buffer, and allowed to adhere in coverslips pre-coated with poly-L-lysine (Sigma-Aldrich; Catalog number: P4707). Cells were then post-fixed with a solution of osmium tetroxide containing 0.8% of potassium ferrocyanide for 30 min and dehydrated in crescent concentrations of ethanol (30, 50, 70, 90 and 100%). The samples were dried until the critical point, metallized with gold and analyzed in a JEOL JSM-6390LV scanning electron microscope. Two independent experiments were performed.

The conditions of series [7]: mouse, in vivo, 20 mg/kg.
Description: (§3) Thus, the highest dose was selected (20 mg/kg) and administrated, as described in material and methods section.
(§4) The analysis was performed in 6 mice per group.
A short description of series [8]: In vivo toxicity: mortality, behaviour, serum and urine renal and hepatic markers. The note with it: mice, 10 or 20 mg/Kg for 5 consecutive days, up to 3 months post treatment.
Description: as §3, §4
The mark [9] stands for this setting: Table S1, 69 indirubin analogues, read-out: EC50 in T.cruzi trypomastigotes.
[10] abbreviates: 100 mg/Kg orally, daily for 5 days.
[11] abbreviates: 20 mg/Kg orally, daily for 5 days.
Setting [12] is: trypomastigotes, 24 h post-treatment, mean ± SD of three experiments, read-out: EC50 Try.

For the compound `O=C1Nc2cc(N3CCNCC3)c([N+](=O)[O-])cc2C1=C1Nc2ccccc2C1=NO` [Compound 45], the EC50 in series [1] (setting [9]) is more than 10 µM.
For `O=C(Cn1ccnc1[N+](=O)[O-])NCc1ccccc1` [Benznidazole, reference compound], in series [2] (setting [10]), the survival rate was determined as 100%. In addition, the “% Blood parasitemia reduction in mice at 12 dpi” value is reported as > 99* % in series [2] (100 mg/Kg orally) and more than 99% in series [2] (100 mg/Kg orally, listed as benznidazole). In series [2] (setting [10]), the Mortality is listed as 0/6*. The compound also yielded a CC50 at 72 h in series [3] of more than 100 µM. Moreover, the EC50 was found to be 11.3 µM in series [1] (Trypanosoma cruzi, 24 h, trypomastigotes, 24 h post-treatment, mean ± SD of three experiments, read-out: EC50 Try.) and 13.4 µM in series [4] (Trypanosoma cruzi, Macrophage).
With 3ʹpyrrolidine-6BIO [Compound 17], the “effect on mortality (in words)” value in series [2] (setting [11]) was “protective effect”. Besides, the Mortality in series [2] (setting [11]) was 1/6*. In addition, the “cytotoxicity against murine macrophages J774.1 (in words)” value in series [5] is “lower cytotoxicity”. This compound also had a CC50 in series [5] (J774.1 cell viability, 72 h post-treatment) of 10 µM. Besides, the EC50 stood at 0.44 µM in series [1] (setting [12]) and 0.9 µM in series [4]. Also, the “morphological alterations by scanning electron microscopy” value (shortened to “morphological alterations”) in series [6] is given as “extensive loss of plasma membrane integrity”. The “ultrastructural alterations by transmission electron microscopy” value (shortened to “ultrastructural alterations”) in series [6] is “appearance of myelin figures”; in series [6] (listed as compound 17) it was “DNA degradation with pyknotic nuclei”.
On to `O=C1Nc2cc(Br)ccc2C1=C1Nc2ccccc2C1=NO` [Compound 6BIO, 3'oxime-6-bromoindirubin], for which the 50% effective concentration (EC50) in series [1] (setting [9]) is more than 10 µM. Also, in series [1] (trypomastigotes), the “activity at the screening threshold (in words)” value is “did not exhibit any activity”.
As for `O=C1Nc2cc(Cl)ccc2C1=C1Nc2ccccc2C1=NO` [Compound 64], the EC50 in series [1] (setting [9]) is more than 10 µM.
As to `O=C1Nc2cc(Br)ccc2C1=C1Nc2ccccc2C1=O` [Compound 55], the EC50 in series [1] (setting [9]) was more than 10 µM.
With `CC(=O)O/N=C1/C(=C2/C(=O)Nc3cc(Br)ccc32)Nc2ccccc21` [Compound 50], in series [1] (setting [9]), the EC50 is more than 10 µM.
Turning to `O=C1Nc2cc(I)ccc2C1=C1Nc2ccccc2C1=NO` [Compound 65], the EC50 in series [1] (setting [9]) was more than 10 µM.
On the same count and under the same terms, the value for `O=C1Nc2cc(Br)c([N+](=O)[O-])cc2C1=C1Nc2ccccc2C1=NO` [Compound 51] was more than 10 µM; that for `O=C1Nc2c(Br)cccc2C1=C1Nc2ccccc2C1=O` [Compound 20] was more than 10 µM.
For `Cc1cc2c(cc1Br)NC(=O)C2=C1Nc2ccccc2C1=NO` [Compound 5-Me-6-BIO, 6-br-5methylindirubin-3ʹoxime], in series [1] (setting [9]), the EC50 is more than 10 µM. Moreover, in series [1] (trypomastigotes), the “activity at the screening threshold (in words)” value is on record as “did not exhibit any activity”.
Take `CN1C(=O)C(=C2Nc3ccccc3C2=NO)c2ccc(Br)cc21` [Compound 58]: the 50% effective concentration (EC50) in series [1] (setting [9]) was more than 10 µM.
With `O=C1Nc2c(cccc2C(F)(F)F)C1=C1Nc2ccccc2C1=NO` [Compound 27], in series [1] (setting [9]), the EC50 is more than 10 µM.
Same read-out and setting: the value for `Cc1cc2c(cc1Br)NC(=O)C2=C1Nc2ccccc2C1=O` [Compound 57] was more than 10 µM.
Turning to `Nc1ccc2c(c1)C(=C1Nc3ccccc3C1=NO)C(=O)N2` [Compound 62], in series [1] (setting [9]), the EC50 is more than 10 µM.
For `O=C1Nc2ccc(Br)cc2C1=C1Nc2ccccc2C1=O` [Compound 60], in series [1] (setting [9]), the EC50 is more than 10 µM.
Consider `CC(=O)ON=C1C(=C2C(=O)N(C)c3cc(Br)ccc32)Nc2ccccc21` [Compound 59], for which, in series [1] (setting [9]), the EC50 was more than 10 µM.
Take 3ʹpiperazine-6-BIO [Compound 11]: in series [2] (setting [11]), the “effect on mortality (in words)” value is “protective effect” and the Mortality was 1/6. For the same compound, in series [7], the “Blood Serum Alanine Aminotransferase (ALT)” value is 29±2 U/I, the “Blood Serum Aspartate Aminotransferase (AST)” value came out at 135.5±10.5 U/I, the “Blood Serum C-Reactive Protein (CRP)” value was less than 0.02 mg/dL and the “Blood Serum Creatinine” value is 0.385 ± 0.015 mg/dL. In series [7], the “Urine (24h) Creatinine” value was determined as 63±8, the “Urine (24h) Microalbumin (Urine Albumin)” value was 9 ± 1 mg/L and the “Urine (24h) Urine albumin to creatinine ratio (ACR)” value is 0.142. In addition, the “signs of toxicity or mortality (in words)” value in series [8] is “no signs of toxicity”. The EC50 in series [1] (setting [12]) was 0.25 µM. Moreover, in series [6], the “morphological alterations” value is on record as “extensive loss of plasma membrane integrity” and the “ultrastructural alterations” value is on record as “appearance of myelin figures”. Besides, in series [6] (listed as compound 11), the “morphological alterations” value is “alterations in cell shape and loss of plasma membrane integrity”; the “ultrastructural alterations” value is reported as “DNA degradation with pyknotic nuclei”. The EC50 in series [4] came out at 0.22 µM.
In the case of `O=C1Nc2cc(Br)c([N+](=O)[O-])cc2C1=C1Nc2ccccc2C1=O` [Compound 54], the EC50 in series [1] (setting [9]) was more than 10 µM.
Same read-out and setting: the value for `Nc1cc2c(cc1Br)NC(=O)C2=C1Nc2ccccc2C1=NO` [Compound 52] was more than 10 µM.
With `O=C1Nc2ccc(Br)cc2C1=C1Nc2ccccc2C1=NO` [Compound 61], in series [1] (setting [9]), the EC50 is more than 10 µM.
On the same count and under the same terms, the value for `Nc1cc2c(cc1Br)NC(=O)C2=C1Nc2ccccc2C1=O` [Compound 53] was more than 10 µM; that for `O=C1Nc2ccccc2/C1=C1/Nc2ccccc2C1=O` [Compound 66] was more than 10 µM.
As for `O=C1Nc2cc(F)ccc2C1=C1Nc2ccccc2C1=NO` [Compound 63], the EC50 in series [1] (setting [9]) is more than 10 µM.
For the compound `CON=C1C(=C2C(=O)Nc3ccccc32)Nc2ccccc21` [Compound 67], the EC50 in series [1] (setting [9]) was more than 10 µM.
Turning to `O=C1Nc2c(Br)cccc2C1=C1Nc2ccccc2C1=NO` [Compound 21], the concentration giving a half-maximal response (EC50) in series [1] (setting [9]) was more than 10 µM.
As to `O=C1Nc2c(cccc2C(F)(F)F)C1=C1Nc2ccccc2C1=O` [Compound 36], the EC50 in series [1] (setting [9]) was more than 10 µM.
Same read-out and setting: the value for `CCOP(=O)(OCC)ON=C1C(=C2C(=O)Nc3cc(Br)ccc32)Nc2ccccc21` [Compound 56] was more than 10 µM.
